This is an account of results in ChEMBL document CHEMBL4483862, “Open-source discovery of chemical leads for next-generation chemoprotective antimalarials” (2018).

The subject of this assay is Plasmodium berghei. Kind of assay: Luciferase/luciferin-expressing antifolate-resistant parasites were used to infect a culture of HepG2 cells that were pre-incubated with compounds. Infected hepatocytes emit light due to the luciferase reaction. Assay results are presented as the percent inhibition of light emission compared to control. […]. Particulars: sporozoite; for IC90: read-out: LUCIFERASE INFECTION ASSAY - IC90. It is filed as functional.

Each structure is given as a SMILES string.

Take `O=C(Nc1cccc(F)c1)Nc1ccc2nc(Cc3ccccc3)nn2c1`: the concentration for an effect of 90% (IC90) came out at 1.35 µM. Further, the half-inhibitory concentration (IC50) (HEPG2TOX_HILL_SLOPE 1.95, HEPG2TOX_R_SQUARED 0.988, PBLUC_HILL_SLOPE 12.2, PBLUC_R_SQUARED 0.455, read-out: LUCIFERASE INFECTION ASSAY - IC50) stood at 1.12 µM.
For the compound `N/C(=N\NC(=O)c1cccc(C(F)(F)F)c1)c1ccc(C(F)(F)F)cn1`, the IC90 was found to be 1.42 µM. The IC50 (HEPG2TOX_HILL_SLOPE 1.95, HEPG2TOX_R_SQUARED 0.695, PBLUC_HILL_SLOPE 3.85, PBLUC_R_SQUARED 0.803, read-out: LUCIFERASE INFECTION ASSAY - IC50) came out at 0.802 µM.
`Cc1ccc(C(=O)COC(=O)Cc2n[nH]c(=O)c3ccccc23)s1`: the concentration for an effect of 90% (IC90) came to 9 µM. The IC50 (HEPG2TOX_HILL_SLOPE 1.97, HEPG2TOX_R_SQUARED 0.94, PBLUC_HILL_SLOPE 2.28, PBLUC_R_SQUARED 0.564, read-out: LUCIFERASE INFECTION ASSAY - IC50) worked out at 3.44 µM.
`COc1ccc(-c2cnc3cnc(-c4cccc(OC)c4F)cn23)cc1`: the IC90 turned out to be 4.49 µM. In addition, the IC50 (HEPG2TOX_HILL_SLOPE 1.94, HEPG2TOX_R_SQUARED 0.943, PBLUC_HILL_SLOPE 2.65, PBLUC_R_SQUARED 0.707, read-out: LUCIFERASE INFECTION ASSAY - IC50) stood at 1.96 µM.
Regarding `CCC(C)NC(=O)c1c(NC(=O)c2ccc(OC)cc2)nc2ccc(C)cn12` (stereo unspecified), the IC90 is more than 8.67 µM. For the same compound, the IC50 (HEPG2TOX_HILL_SLOPE 1.94, HEPG2TOX_R_SQUARED 0.651, PBLUC_HILL_SLOPE 14.9, PBLUC_R_SQUARED 0.0352, read-out: LUCIFERASE INFECTION ASSAY - IC50) came out at 7.7 µM.
As for `Cc1ccc(-n2nnnc2SCc2ccccc2Cl)c(C)c1`, the IC90 is more than 9.97 µM. In addition, the IC50 (HEPG2TOX_HILL_SLOPE 1.94, HEPG2TOX_R_SQUARED 0.896, PBLUC_HILL_SLOPE 2.04, PBLUC_R_SQUARED 0.254, read-out: LUCIFERASE INFECTION ASSAY - IC50) stood at 6.75 µM.
On to `COc1ccc(OC)c(CCNc2nc3cnc(-c4ccc(OC)nc4)cc3n2C)c1`, for which the IC90 worked out at 2.85 µM. For the same compound, under “HEPG2TOX_HILL_SLOPE 1.95, HEPG2TOX_R_SQUARED 0.873, PBLUC_HILL_SLOPE 2.34, PBLUC_R_SQUARED 0.799, read-out: LUCIFERASE INFECTION ASSAY - IC50”, the IC50 came out at 1.11 µM.
For `O=S(=O)(c1ccc2oc(Nc3ccc(-c4nc5ccccc5[nH]4)cc3)nc2c1)N1CCOCC1`, the IC90 was 3.62 µM. In addition, the IC50 (HEPG2TOX_HILL_SLOPE 1.96, HEPG2TOX_R_SQUARED 0.85, PBLUC_HILL_SLOPE 1.98, 8.82, PBLUC_R_SQUARED 0.398, 0.470, read-out: LUCIFERASE INFECTION ASSAY - IC50) is 1.54 µM.
For `CCOc1cccc(-c2cn3c(-c4ccc5ncccc5c4)cnc3cn2)c1`, the IC90 was determined as 0.0959 µM. Further, the IC50 (HEPG2TOX_HILL_SLOPE 1.97, HEPG2TOX_R_SQUARED 0.663, PBLUC_HILL_SLOPE 2.12, PBLUC_R_SQUARED 0.862, read-out: LUCIFERASE INFECTION ASSAY - IC50) is 0.0341 µM.
On to `O=C(NCc1ccc(-c2cccs2)s1)c1ccc([N+](=O)[O-])o1`, for which the IC90 is more than 9.87 µM. Moreover, for the setting “HEPG2TOX_HILL_SLOPE 1.96, HEPG2TOX_R_SQUARED 0.945, PBLUC_HILL_SLOPE 1.03, PBLUC_R_SQUARED 0.326, read-out: LUCIFERASE INFECTION ASSAY - IC50”, the IC50 was more than 9.87 µM.
As for `C=CCN(C(=O)CCc1ccc(S(=O)(=O)N2CCCCCC2)cc1)c1nc2c(s1)CCCC2`, the IC90 is more than 10 µM. Further, where the note is “HEPG2TOX_HILL_SLOPE 1.95, HEPG2TOX_R_SQUARED 0.844, PBLUC_HILL_SLOPE 2.62, PBLUC_R_SQUARED 0.304, read-out: LUCIFERASE INFECTION ASSAY - IC50”, the IC50 was determined as 8.2 µM.
`COc1ccc(NS(=O)(=O)c2cccc(C(=O)Nc3ncc(C)s3)c2)cc1Br`: the IC90 was determined as 4.59 µM. The IC50 (HEPG2TOX_HILL_SLOPE 1.95, HEPG2TOX_R_SQUARED 0.754, PBLUC_HILL_SLOPE 9.08, 8.50, PBLUC_R_SQUARED 0.373, 0.408, read-out: LUCIFERASE INFECTION ASSAY - IC50) is 5.79 µM.
For the compound `CC(C)NC(=O)c1c(NC(=O)c2ccc(C#N)cc2)nc2ccccn12`, the IC90 is more than 9.5 µM. Moreover, where the note is “HEPG2TOX_HILL_SLOPE 1.96, HEPG2TOX_R_SQUARED 0.946, PBLUC_HILL_SLOPE 9.83, PBLUC_R_SQUARED 0.197, read-out: LUCIFERASE INFECTION ASSAY - IC50”, the IC50 amounted to 8.07 µM.
`COc1ccc(-c2cnc3c(Nc4cccc(OC(F)(F)C(F)F)c4)nccn23)cc1`: the IC90 turned out to be 2.67 µM. In addition, the IC50 (HEPG2TOX_HILL_SLOPE 1.95, HEPG2TOX_R_SQUARED 0.977, PBLUC_HILL_SLOPE 27.6, PBLUC_R_SQUARED 0.693, read-out: LUCIFERASE INFECTION ASSAY - IC50) came to 2.47 µM.
`Cc1ccccc1-c1ccc(CN2CCC3(CC2)C(=O)N(C)C(=O)N3CC(C)C)cc1`: the 90% effect concentration (IC90) was 3.99 µM. Also, the IC50 (HEPG2TOX_HILL_SLOPE 1.94, HEPG2TOX_R_SQUARED 0.943, PBLUC_HILL_SLOPE 7.56, PBLUC_R_SQUARED 0.512, read-out: LUCIFERASE INFECTION ASSAY - IC50) turned out to be 2.99 µM.
Regarding `N#Cc1ccc(OCc2nc3ccccc3n2C(F)F)cc1`, the IC90 was found to be 4.42 µM. In addition, for the setting “HEPG2TOX_HILL_SLOPE 1.97, HEPG2TOX_R_SQUARED 0.844, PBLUC_HILL_SLOPE 169, PBLUC_R_SQUARED 0.414, read-out: LUCIFERASE INFECTION ASSAY - IC50”, the IC50 was found to be 4.36 µM.
Consider `Fc1ccc(CSc2nnnn2-c2ccc3c(c2)OCO3)c(Cl)c1`, for which the IC90 turned out to be 8.12 µM. Further, for the setting “HEPG2TOX_HILL_SLOPE 1.94, HEPG2TOX_R_SQUARED 0.929, PBLUC_HILL_SLOPE 1.23, PBLUC_R_SQUARED 0.52, read-out: LUCIFERASE INFECTION ASSAY - IC50”, the IC50 came to 1.37 µM.
For the compound `CC(C)(C)c1ccc(OCc2ccc(C(=O)N3CCN(CC(=O)NC4CC4)CC3)cc2)cc1`, the IC90 is more than 10 µM. For the same compound, the IC50 (HEPG2TOX_HILL_SLOPE 1.95, HEPG2TOX_R_SQUARED 0.886, PBLUC_HILL_SLOPE 11.8, PBLUC_R_SQUARED 0.642, read-out: LUCIFERASE INFECTION ASSAY - IC50) amounted to 8.43 µM.
For `Cc1cc(C(=O)OCc2ccc(-n3nc(C)cc3C)cc2)c2ccccc2n1`, the IC90 turned out to be 4.21 µM. Further, the IC50 (HEPG2TOX_HILL_SLOPE 1.96, HEPG2TOX_R_SQUARED 0.0908, PBLUC_HILL_SLOPE 15.9, PBLUC_R_SQUARED 0.28, read-out: LUCIFERASE INFECTION ASSAY - IC50) amounted to 3.66 µM.
In the case of `CCOc1ccc(C(=O)NNC(=O)c2cc(Cl)ccc2O)cc1`, the IC90 is more than 10 µM. The IC50 (HEPG2TOX_HILL_SLOPE 1.98, HEPG2TOX_R_SQUARED 0.918, PBLUC_HILL_SLOPE 3.04, PBLUC_R_SQUARED 0.138, read-out: LUCIFERASE INFECTION ASSAY - IC50) came to 7.76 µM.
As to `Cc1cccc(Nc2ncc(C(=O)c3cccc(-c4ccncc4)c3)[nH]2)c1`, the IC90 came out at 2.02 µM. The IC50 (HEPG2TOX_HILL_SLOPE 1.98, HEPG2TOX_R_SQUARED 0.759, PBLUC_HILL_SLOPE 4.11, PBLUC_R_SQUARED 0.608, read-out: LUCIFERASE INFECTION ASSAY - IC50) amounted to 1.18 µM.
For the compound `O=C(Nc1ccc(-n2cnc3ccccc32)cc1)c1ccc(NC(=O)C2CC2)cc1`, the IC90 was more than 10 µM. The IC50 (HEPG2TOX_HILL_SLOPE 1.98, HEPG2TOX_R_SQUARED 0.988, PBLUC_HILL_SLOPE 3.86, PBLUC_R_SQUARED 0.781, read-out: LUCIFERASE INFECTION ASSAY - IC50) came to 6.59 µM.
As for `CCCCC(=O)NNC(=O)c1nn(-c2ccccc2)cc1O`, the IC90 came to 6.61 µM. Under “HEPG2TOX_HILL_SLOPE 1.96, 5.56, HEPG2TOX_R_SQUARED 0.938, 0.275, PBLUC_HILL_SLOPE 4.09, 13.0, PBLUC_R_SQUARED 0.105, 0.390, read-out: LUCIFERASE INFECTION ASSAY - IC50”, the IC50 stood at 4.4 µM.
In the case of `N#Cc1sc(SCc2ccccc2)c2c1CC(c1ccccc1)CC2=O` (stereo unspecified), the IC90 was more than 8.79 µM. Also, the IC50 (HEPG2TOX_HILL_SLOPE 1.94, HEPG2TOX_R_SQUARED 0.866, PBLUC_HILL_SLOPE 1.6, PBLUC_R_SQUARED 0.401, read-out: LUCIFERASE INFECTION ASSAY - IC50) turned out to be 7.45 µM.
For `OCc1ccc(-c2cnc3ccc(-c4ccc(F)cc4)nn23)cc1`, the IC90 came to 5.21 µM. In addition, the IC50 (HEPG2TOX_HILL_SLOPE 1.97, HEPG2TOX_R_SQUARED 0.914, PBLUC_HILL_SLOPE 1.12, PBLUC_R_SQUARED 0.781, read-out: LUCIFERASE INFECTION ASSAY - IC50) came to 0.738 µM.
As to `O=C(NCCCc1nc2ccccc2[nH]1)c1[nH]nc2ccccc12`, the IC90 worked out at 1.48 µM. Where the note is “HEPG2TOX_HILL_SLOPE 1.95, 1.49, HEPG2TOX_R_SQUARED 0.808, 0.974, PBLUC_HILL_SLOPE 11.3, 2.85, PBLUC_R_SQUARED 0.579, 0.589, read-out: LUCIFERASE INFECTION ASSAY - IC50”, the IC50 was found to be 0.947 µM.
For `COc1ccc(-c2cc3c(cn2)nc(NCCc2cc(OC)ccc2OC)n3C)c(C)c1`, the IC90 was 3.63 µM. The IC50 (HEPG2TOX_HILL_SLOPE 1.97, HEPG2TOX_R_SQUARED 0.898, PBLUC_HILL_SLOPE 1.3, PBLUC_R_SQUARED 0.74, read-out: LUCIFERASE INFECTION ASSAY - IC50) came out at 0.669 µM.
For the compound `O=C1/C(=C/c2cc(Cl)ccc2O)NC(=S)N1Cc1ccccc1Cl`, the IC90 was 1.37 µM. For the setting “HEPG2TOX_HILL_SLOPE 1.93, HEPG2TOX_R_SQUARED 0.989, PBLUC_HILL_SLOPE 8.09, PBLUC_R_SQUARED 0.926, read-out: LUCIFERASE INFECTION ASSAY - IC50”, the IC50 was found to be 1.05 µM.

The term IC50 denotes the concentration that gives 50% inhibition. As a reminder, the IC90 is the concentration needed for an effect of 90%.
